Source: patent publication US9115151B2, “Substituted 2,10-dihydro-9-oxa-1,2,4A-triazaphenanthren-3-ones and uses thereof” (AbbVie Inc., priority 2012, dated 2015)
pEC50, pIC50: −log10 of the molar value. Structures can show the parent of a compound that is named as a salt.

How the values were obtained:
PKCα = biological target: T1, PKCα (Homo sapiens, UniProt P17252); assay: In vitro enzyme assay (time-resolved fluorescence kinase assay), PKCα, 100 μM ATP; type: biochemical; conditions: 100 μM ATP; read-out: PKCα enzyme IC50
T1 construct: His6; purchased Millipore; host or cells: baculovirus in Sf21 cells
Outline: (§1)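 Read-out was time-resolved fluorescence, corrected for a minus-enzyme blank and converted to percent activity relative to enzyme without drug. They were stopped with EDTA.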

PKCθ = biological target: T2, PKCθ (Homo sapiens, UniProt Q04759); assay: In vitro enzyme assay (time-resolved fluorescence kinase assay), PKCθ, 100 μM ATP; type: biochemical
T2 construct: His6; purchased Millipore; host or cells: baculovirus in Sf21 cells
Outline: as §1

[1] = test system: CD3/CD28 induced IL-2 in human T-Blasts; assay: T-Blasts CD3/CD28 induced IL-2 assay; type: cell-based; conditions: read-out: CD3/CD28-stimulated IL2 in T-blasts EC50
Outline: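 PHA-generated human T-blasts, 2×10^5 per well, preincubated 30 min with 8-point 1/3 compound dilutions in duplicate, then stimulated with anti-CD3+anti-CD28 (5 μg/mL final) for 24 h at 37° C. Supernatant IL-2 measured; MTT toxicity run on remaining cells.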

T2 sequence (Q04759 whole entry): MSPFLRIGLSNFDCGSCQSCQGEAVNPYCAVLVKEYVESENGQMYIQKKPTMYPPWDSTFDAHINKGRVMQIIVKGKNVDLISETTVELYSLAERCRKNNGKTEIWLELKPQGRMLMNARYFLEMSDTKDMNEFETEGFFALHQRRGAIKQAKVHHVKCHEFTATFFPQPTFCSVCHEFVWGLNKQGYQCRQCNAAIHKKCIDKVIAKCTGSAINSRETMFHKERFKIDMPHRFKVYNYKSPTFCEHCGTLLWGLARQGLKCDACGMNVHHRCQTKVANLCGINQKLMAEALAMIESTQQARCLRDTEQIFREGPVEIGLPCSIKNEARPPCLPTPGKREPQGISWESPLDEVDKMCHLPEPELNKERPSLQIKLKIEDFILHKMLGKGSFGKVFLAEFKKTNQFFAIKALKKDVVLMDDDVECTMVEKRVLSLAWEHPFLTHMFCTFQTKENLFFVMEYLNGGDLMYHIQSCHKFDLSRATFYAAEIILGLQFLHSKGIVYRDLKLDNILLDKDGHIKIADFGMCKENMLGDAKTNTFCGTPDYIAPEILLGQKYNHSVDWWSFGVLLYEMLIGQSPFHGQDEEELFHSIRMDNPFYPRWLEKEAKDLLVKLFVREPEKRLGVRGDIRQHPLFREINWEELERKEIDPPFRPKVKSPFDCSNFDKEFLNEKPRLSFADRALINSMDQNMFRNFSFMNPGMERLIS

| SMILES | pIC50 (PKCα) | pIC50 (PKCθ) | pEC50 [1] |
| --- | --- | --- | --- |
| Cc1cc2c(cc1NC1CNC1)N1C(=NNC(=O)C1C)CO2 (stereo not drawn) [Example 122, 9-(Azetidin-3-ylamino)-1,8-dimethyl-3,5-dihydrobenzo[5,6][1,4]oxazino[3,4-c][1,2,4]triazin-2(1H)-one ditrifluoroacetic acid] | 5.00 to 6.00 | > 6.60 | 5.00 to 6.00 |
| CC1C(=O)NN=C2COc3cc(F)c(OC4CNC4)cc3N21 (stereo not drawn) [Example 123, 9-(Azetidin-3-yloxy)-8-fluoro-1-methyl-3,5-dihydrobenzo[5,6][1,4]oxazino[3,4-c][1,2,4]triazin-2(1H)-one trifluoroacetic acid] | 5.00 to 6.00 | 6.00 to 6.60 | 5.00 to 6.00 |
| C[C@@H]1C(=O)NN=C2COc3cc(F)c(OC4CNC4)cc3N21 [Example 124, (R)-9-(Azetidin-3-yloxy)-8-fluoro-1-methyl-3,5-dihydrobenzo[5,6][1,4]oxazino[3,4-c][1,2,4]triazin-2(1H)-one trifluoroacetic acid] | 5.00 to 6.00 | > 6.60 | > 6.60 |
| Cc1cc2c(cc1NC1CN(C)C1)N1C(=NNC(=O)C1C)CO2 (stereo not drawn) [Example 125, 1,8-Dimethyl-9-((1-methylazetidin-3-yl)amino)-3,5-dihydrobenzo[5,6][1,4]oxazino[3,4-c][1,2,4]triazin-2(1H)-one trifluoroacetic acid] | 5.00 to 6.00 | > 6.60 | 6.00 to 6.60 |
| CC(C)N1CC(C)(Nc2cc3c(cc2C2CCOCC2)OCC2=NNC(=O)C(C)N23)C1 (stereo not drawn) [Example 126, 9-((1-Isopropyl-3-methylazetidin-3-yl)amino)-1-methyl-8-(tetrahydro-2H-pyran-4-yl)-3,5-dihydrobenzo[5,6][1,4]oxazino[3,4-c][1,2,4]triazin-2(1H)-one trifluoroacetic acid] | 5.00 to 6.00 | > 6.60 | 6.00 to 6.60 |
| CC1C(=O)NN=C2COc3cc(OCc4ccccc4)c(NC4CNC4)cc3N21 (stereo not drawn) [Example 127, 6-(Azetidin-3-ylamino)-7-benzyloxy-4-methyl-2,10-dihydro-9-oxa-1,2,4a-triaza-phenanthren-3-one trifluoroacetic acid] | 5.00 to 6.00 | > 6.60 | 6.00 to 6.60 |
| CC1C(=O)NN=C2COc3cc(Nc4ccccc4)c(NC4CNC4)cc3N21 (stereo not drawn) [Example 128, 6-(Azetidin-3-ylamino)-4-methyl-7-phenylamino-2,10-dihydro-9-oxa-1,2,4a-triaza-phenanthren-3-one trifluoroacetic acid] | 5.00 to 6.00 | > 6.60 | 6.00 to 6.60 |
| CC1C(=O)NN=C2COc3ccc(C(C)C4(C)CNC4)cc3N21 (stereo not drawn) [Example 129, 1-Methyl-9-(1-(3-methylazetidin-3-yl)ethyl)-3,5-dihydrobenzo[5,6][1,4]oxazino[3,4-c][1,2,4]triazin-2(1H)-one trifluoroacetic acid] | 5.00 to 6.00 | > 6.60 | 6.00 to 6.60 |
| C[C@@H]1C(=O)NN=C2COc3cc(-c4c(F)cccc4N4CCNCC4)ccc3N21 [Example 130, (R)-7-(2-Fluoro-6-piperazin-1-yl-phenyl)-4-methyl-2,10-dihydro-9-oxa-1,2,4a-triaza-phenanthren-3-one trifluoroacetic acid] | 5.00 to 6.00 | 6.00 to 6.60 | 6.00 to 6.60 |
| C[C@@H]1C(=O)NN=C2COc3cc(-c4c(Cl)cccc4N4CCNCC4)ccc3N21 [Example 131] | 5.00 to 6.00 | > 6.60 | 6.00 to 6.60 |
| C[C@@H]1C(=O)NN=C2COc3cc(-c4c(N5CCNCC5)ccc(Cl)c4Cl)ccc3N21 [Example 132] | 5.00 to 6.00 | > 6.60 | 6.00 to 6.60 |
| CC(C)c1cc2c(cc1[C@@H](C)C1(C)CNC1)N1C(=NNC(=O)[C@H]1C)CO2 [Example 133, (R)-7-Isopropyl-4-methyl-6-[(R)-1-(3-methyl-azetidin-3-yl)-ethyl]-2,10-dihydro-9-oxa-1,2,4a-triaza-phenanthren-3-one hydrochloric acid] | 5.00 to 6.00 | 6.00 to 6.60 | 6.00 to 6.60 |
| CC(C)c1cc2c(cc1[C@@H](C)C1(C)CN(C)C1)N1C(=NNC(=O)[C@H]1C)CO2 [Example 134, (R)-6-[(R)-1-(1,3-Dimethyl-azetidin-3-yl)-ethyl]-7-isopropyl-4-methyl-2,10-dihydro-9-oxa-1,2,4a-triaza-phenanthren-3-one] | 5.00 to 6.00 | > 6.60 | 6.00 to 6.60 |
| C[C@@H]1C(=O)NN=C2COc3cc(-c4ccccc4CO)c([C@@H](C)C4(C)CN(C)C4)cc3N21 [Example 135] | 6.00 to 6.60 | > 6.60 | > 6.60 |
| C[C@@H]1C(=O)NN=C2COc3cc(-c4ccco4)c([C@@H](C)C4(C)CN(C)C4)cc3N21 [Example 136] | 5.00 to 6.00 | > 6.60 | 6.00 to 6.60 |
| C[C@@H]1C(=O)NN=C2COc3cc(-c4ccccc4C(C)(C)O)c([C@@H](C)C4(C)CN(C)C4)cc3N21 [Example 137, (R)-6-[(R)-1-(1,3-Dimethyl-azetidin-3-yl)-ethyl]-7-[2-(1-hydroxy-1-methyl-ethyl)-phenyl]-4-methyl-2,10-dihydro-9-oxa-1,2,4a-triaza-phenanthren-3-one] | 5.00 to 6.00 | > 6.60 | 6.00 to 6.60 |

| SMILES | pIC50 (PKCα) | pIC50 (PKCθ) | pEC50 [1] |
| --- | --- | --- | --- |
| CC(C)c1cc2c(cc1[C@@H](C)C1(C)CN(CCO)C1)N1C(=NNC(=O)[C@H]1C)CO2 [Example 138, (R)-6-{(R)-1-[1-(2-Hydroxy-ethyl)-3-methyl-azetidin-3-yl]-ethyl}-7-isopropyl-4-methyl-2,10-dihydro-9-oxa-1,2,4a-triaza-phenanthren-3-one hydrochloric acid] | 6.00 to 6.60 | > 6.60 | 6.00 to 6.60 |
| C[C@H](O)CN1CC(C)([C@H](C)c2cc3c(cc2-c2ccccc2F)OCC2=NNC(=O)[C@@H](C)N23)C1 [Example 139, (R)-7-(2-Fluoro-phenyl)-6-{(R)-1-[1-((S)-2-hydroxy-propyl)-3-methyl-azetidin-3-yl]-ethyl}-4-methyl-2,10-dihydro-9-oxa-1,2,4a-triaza-phenanthren-3-one hydrochloric acid] | > 6.60 | > 6.60 | > 6.60 |
| C[C@@H]1C(=O)NN=C2COc3cc(-c4ccccc4F)c([C@@H](C)C4(C)CN(C[C@@H](C)O)C4)cc3N21 [Example 140] | 6.00 to 6.60 | > 6.60 | > 6.60 |
| C[C@@H]1C(=O)NN=C2COc3cc(-c4ccccc4F)c([C@@H](C)C4(C)CN(CCO)C4)cc3N21 [Example 141] | 6.00 to 6.60 | > 6.60 | > 6.60 |
| C[C@@H]1C(=O)NN=C2COc3cc(-c4ccccc4F)c([C@@H](C)C4(C)CN(CC5CCOCC5)C4)cc3N21 [Example 142] | 5.00 to 6.00 | > 6.60 | 6.00 to 6.60 |
| C[C@@H]1C(=O)NN=C2COc3cc(-c4ccccc4F)c([C@@H](C)C4(C)CN(CC(C)(C)O)C4)cc3N21 [Example 143] | 6.00 to 6.60 | > 6.60 | > 6.60 |
| C[C@@H]1C(=O)NN=C2COc3cc(-c4ccccc4F)c([C@@H](C)C4(C)CN(CC5COC5)C4)cc3N21 [Example 144] | 5.00 to 6.00 | > 6.60 | 6.00 to 6.60 |
| COCCN1CC(C)([C@H](C)c2cc3c(cc2-c2ccccc2F)OCC2=NNC(=O)[C@@H](C)N23)C1 [Example 145] | 5.00 to 6.00 | > 6.60 | 6.00 to 6.60 |
| C[C@@H]1C(=O)NN=C2COc3cc(-c4ccccc4F)c([C@@H](C)C4(C)CNC4)cc3N21 [Example 146, (R)-7-(2-Fluoro-phenyl)-4-methyl-6-[(R)-1-(3-methyl-azetidin-3-yl)-ethyl]-2,10-dihydro-9-oxa-1,2,4a-triaza-phenanthren-3-one] | > 6.60 | > 6.60 | > 6.60 |
| C[C@@H]1C(=O)NN=C2COc3cc4ccn(C5(C)CNC5)c4cc3N21 [Example 148, (R)-1-Methyl-10-(3-methyl-azetidin-3-yl)-3,5-dihydro-10H-6-oxa-3,4,10,11b-tetraaza-cyclopenta[b]phenanthren-2-one hydrochloride] | 6.00 to 6.60 | > 6.60 | > 6.60 |
| [2H]c1cn(C2(C)CNC2)c2cc3c(cc12)OCC1=NNC(=O)C(C)N13 (stereo not drawn) [Example 149, 8-Deuterated-1-methyl-10-(3-methyl-azetidin-3-yl)-3,5-dihydro-10H-6-oxa-3,4,10,11b-tetraaza-cyclopenta[b]phenanthren-2-one hydrochloride] | 5.00 to 6.00 | > 6.60 | > 6.60 |
| CCC1(n2ccc3cc4c(cc32)N2C(=NNC(=O)[C@H]2C)CO4)CNC1 [Example 150] | 5.00 to 6.00 | > 6.60 | 6.00 to 6.60 |
| C[C@@H]1C(=O)NN=C2COc3cc4ccn([C@H]5CCNC5)c4cc3N21 [Example 151-1, (R)-1-Methyl-10-(S)-pyrrolidin-3-yl-3,5-dihydro-10H-6-oxa-3,4,10,11b-tetraaza-cyclopenta[b]phenanthren-2-one hydrochloric acid] | 6.00 to 6.60 | > 6.60 | > 6.60 |
| C[C@@H]1C(=O)NN=C2COc3cc4ccn([C@@H]5CCNC5)c4cc3N21 [Example 151-2, (R)-1-Methyl-10-(R)-pyrrolidin-3-yl-3,5-dihydro-10H-6-oxa-3,4,10,11b-tetraaza-cyclopenta[b]phenanthren-2-one hydrochloric acid] | 5.00 to 6.00 | > 6.60 | 6.00 to 6.60 |
| CC1C(=O)NN=C2COc3cc4ccn(C5CCCNC5)c4cc3N21 (stereo not drawn) [Example 152] | 5.00 to 6.00 | > 6.60 | 6.00 to 6.60 |
